Test results reported in ChEMBL document CHEMBL1126466, “Chemical synthesis of D-erythro-sphingosine-1-phosphate, and its inhibitory effect on cell motility” (1992).
“And” between values parts separate entries of the source, which are not always exact repeats. Equal entries are not always repeated.

How the values were obtained:
Type in all cases: functional, B16/F1
[1] = The compound was tested for inhibitory effect on motility of mouse melanoma B16/Fl cells in an in vitro Matri gel-coated transwell assay system at 5 uM concentration expressed as percent migration
[2] = The compound was tested for inhibitory effect on motility of mouse melanoma B16/Fl cells in an in vitro Matri gel-coated transwell assay system at 0.1 uM concentration expressed as percent migration
[3] = The compound was tested for inhibitory effect on motility of mouse melanoma B16/Fl cells in an in vitro Matri gel-coated transwell assay system at 1 uM concentration expressed as percent migration
[4] = The compound was tested for inhibitory effect on motility of mouse melanoma B16/Fl cells in an in vitro Matri gel-coated transwell assay system at 0.01 uM concentration expressed as percent migration
[5] = The compound was tested for inhibitory effect on motility of mouse melanoma B16/Fl cells in an in vitro Matri gel-coated transwell assay system at 1 uM concentration
[6] = The compound was tested for inhibitory effect on motility of mouse melanoma B16/Fl cells in an in vitro Matri gel-coated transwell assay system at 0.001 uM concentration
[7] = The compound was tested for inhibitory effect on motility of mouse melanoma B16/Fl cells in an in vitro Matri gel-coated transwell assay system at 0.001 uM concentration expressed as percent migration

Compound	Migration [1]	Migration [2]	Migration [3]	Migration [4]	Migration [5]	Migration [6]	Migration [7]
CCCCCCCCCCCCC/C=C/[C@@H](O)[C@@H](N)CO [SPHINGOSINE]	12%	90%	78%	–	–	–	–
CCCCCCCCCCCCC/C=C/[C@@H](O)[C@@H](N)COP(=O)(O)O	34% and 41%	6% and 12%	8%	12% and 17%	10%	82%	122%
